# Experiments:
# SD rats = assay: Hypolipidemic activity in rats: serum triglyceride after 6 months oral gavage; type: in vivo, rat; settings: for TG (serum triglyceride level): at terminal of administration, x ± SD, n = 14
# Description: Reagent: phenylethyl isothiocyanate, synthesized by Wuxi Jiexi Pharmaceutical Technology Co., Ltd. The chemical construction was determined by NMR, UV, IR, MS, etc., and its content and purity were determined by HPLC (>99%); Fulinmen Brand corn oil, manufactured by Dongliang Industry (Zhangjiagang) Co., Ltd.
# Animals: Clean SD rats, half male and half female, weighed 80-100 g, were provided by Shanghai Slac Laboratory Animal Co., Ltd. Free access to drinking water, ambient temperature of 20-25° C., relative humidity of 40%-70%.
# Experimental methods: Male rats with 123-149 g of body weight were randomly divided into 4 groups according to their body weights. Female rats with 116-142 g of body weight were randomly divided into 4 groups according to body weights. In the control group and high dose group, there were 60 in each group. In the medium-dose and low-dose groups, there were 40 in each group, half male and half female. 0, 20, 60, 120 mg/kg of phenethyl isothiocyanate was administered by oral gavage, wherein the test drug was diluted with corn oil. The rats were administered continuously for 6 months, and administered 6 days a week, and administered at the same time every morning.
# Observation items: blood biochemical examination.
# [1] = tested on: patients with benign prostatic hyperplasia; assay: Multicenter randomized double-blind placebo-controlled trial, 24 weeks: serum triglyceride, lipoprotein cholesterol, total bilirubin; type: in vivo, human; settings: for serum high-density lipoprotein, average change value compared with baseline / serum high-density lipoprotein, percentage of average change compared with baseline: Centers No. 11, 13 and 14
# Description: A multicenter, randomized, double-blind, placebo parallel control design was used to preliminarily evaluate the safety and efficacy of phenylethyl isothiocyanate capsules on the treatment of BPH patients. Subjects meeting the entry criteria were randomly assigned to any of the following four groups at a ratio of 1:1:1:1: administration group (Group A): phenylethyl isothiocyanate 10 mg/time, 3 times a day; administration group (group D): phenylethyl isothiocyanate 20 mg/time, 3 times a day; administration group (group B): phenylethyl isothiocyanate 30 mg/time, 3 times a day; placebo group (group C): phenylethyl isothiocyanate placebo 1 capsule/time, 3 times a day. Oral administration was continued for 24 weeks. Men between the ages of 50 and 75, healthy, with moderate benign prostatic hyperplasia, no signs of prostate cancer. A total of 240 men participated in the six-month trial. Effectiveness: 1. benign prostatic hyperplasia: IPSS, QOL, prostate volume, the maximal urinary flow rate, residual urine; 2. triglycerides; 3. lipoprotein cholesterol; 4. total bilirubin. Safety: occurrence, process, and solution of all adverse events during treatment. Among the 14 centers in the clinical trial, the serum triglyceride levels and high-density lipoprotein and low-density lipoprotein levels in serum of the subjects were all detected in the center No. 11, center No. 13, and center No. 14.
# [2] = tested on: volunteers with benign prostatic hyperplasia accompanied by elevated bilirubin; assay: Auxiliary detection on total bilirubin and blood lipid, 24 weeks; type: in vivo, human; settings: 10, 20 or 30 mg 3 times a day oral
# Description: Using the same method as described in Example 2, 24 volunteers with benign prostatic hyperplasia accompanied by elevated bilirubin were recruited. Using the same manner as described in Example 2, subjects meeting the entry criteria were randomly assigned into any of the following four groups at a ratio of 1:1:1:1: administration group (Group A): phenylethyl isothiocyanate 10 mg/time, 3 times a day; administration group (Group D): Phenylethyl isothiocyanate 20 mg/time, 3 times a day; administration group (Group B): phenylethyl isothiocyanate 30 mg/time, 3 times a day; placebo group (C group): phenylethyl isothiocyanate placebo 1 capsule/time, 3 times a day. Oral administration was continued for 24 weeks. The effectiveness and safety of the experiment were evaluated. Effectiveness: 1. benign prostatic hyperplasia: IPSS, QOL, prostate volume, maximal urinary flow rate, residual urine; 2. triglycerides; 3. lipoprotein cholesterol; 4. total bilirubin. Safety: occurrence, process, and solution of all adverse events during treatment.
# [3] = tested on: volunteers with only hyperlipidemia; assay: Auxiliary detection on blood lipids, 6 weeks; type: in vivo, human; settings: 10, 20 or 30 mg 3 times a day oral
# Description: Using the same method as described in Example 3 except that 8 volunteers with only hyperlipidemia were recruited and using the same method as described in Example 3. The volunteers were randomly assigned into the following four groups at a ratio of 1:1:1:1: administration group (Group A): phenylethyl isothiocyanate 10 mg/time, 3 times a day; administration group (Group D): phenylethyl isothiocyanate 20 mg/time, 3 times a day; administration group (Group B): phenylethyl isothiocyanate 30 mg/time, 3 times a day; placebo group (Group C): phenylethyl isothiocyanate placebo 1 capsule/time, 3 times a day. Oral administration was continued for 6 weeks.
# [4] = tested on: volunteers with only hyperbilirubinemia; assay: Auxiliary detection on total bilirubin, 6 weeks; type: in vivo, human; settings: 10, 20 or 30 mg 3 times a day oral
# Description: The method was the same as described in Example 3, except that 8 volunteers with only hyperbilirubinemia were recruited in the medical research peers. Using the same manner as described in Example 3, the subjects were randomly assigned into any one of the following four groups at a ratio of 1:1:1:1: administration group (Group A): phenylethyl isothiocyanate 10 mg/time, 3 times a day; administration group (Group D): phenylethyl isothiocyanate 20 mg/time, 3 times a day; administration group (Group B): phenylethyl isothiocyanate 30 mg/time, 3 times a day; placebo group (C group): phenylethyl isothiocyanate placebo 1 capsule/time, 3 times a day. Oral administration was continued for 6 weeks.
smiles,measurement,setting,value
S=C=NCCc1ccccc1 [phenylethyl isothiocyanate],decrease of triglycerides in serum compared with the 0 mg/kg group,"SD rats; female rats, 20 mg/kg",25.5%
same,TG (serum triglyceride level),"SD rats; female rats, 20 mg/kg oral gavage",2.13 ± 0.82 mmol/L
same,decrease of triglycerides in serum compared with the 0 mg/kg group,"SD rats; female rats, 60 mg/kg",41.2%
same,TG (serum triglyceride level),"SD rats; female rats, 60 mg/kg oral gavage",1.68 ± 0.63 mmol/L
same,decrease of triglycerides in serum compared with the 0 mg/kg group,"SD rats; female rats, 120 mg/kg",52.8%
same,TG (serum triglyceride level),"SD rats; female rats, 120 mg/kg oral gavage",1.35 ± 0.72 mmol/L
same,decrease of triglycerides in serum compared with the 0 mg/kg group,"SD rats; male rats, 20 mg/kg",24.1%
same,TG (serum triglyceride level),"SD rats; male rats, 20 mg/kg oral gavage",1.73 ± 0.79 mmol/L
same,decrease of triglycerides in serum compared with the 0 mg/kg group,"SD rats; male rats, 60 mg/kg",44.3%
same,TG (serum triglyceride level),"SD rats; male rats, 60 mg/kg oral gavage",1.27 ± 0.38 mmol/L
same,decrease of triglycerides in serum compared with the 0 mg/kg group,"SD rats; male rats, 120 mg/kg",56.1%
same,TG (serum triglyceride level),"SD rats; male rats, 120 mg/kg oral gavage",1.00 ± 0.22 mmol/L
same,"triglyceride, percentage of average change compared with baseline","[1]; Group A, 30 mg (10 mg 3 times a day) oral, 24 weeks",−6.54%
same,"total bilirubin, percentage of average change compared with the baseline","[1]; Group A, 30 mg, 4 weeks",2.23%
same,"total bilirubin, percentage of average change compared with the baseline","[1]; Group A, 30 mg, 8 weeks",−3.15%
same,"total bilirubin, percentage of average change compared with the baseline","[1]; Group A, 30 mg, 16 weeks",−4.46%
same,"low-density lipoprotein, average change value compared with baseline","[1]; Group A, 30 mg, 24 weeks",0.0062
same,"low-density lipoprotein, percentage of average change compared with baseline","[1]; Group A, 30 mg, 24 weeks",−0.88%
same,"total bilirubin levels, average decrease compared with the baseline","[1]; Group A, 30 mg, 24 weeks",8.91%
same,"total bilirubin, percentage of average change compared with the baseline","[1]; Group A, 30 mg, 24 weeks",−8.91%
same,"triglyceride levels, average decrease compared with baseline","[1]; Group A, 30 mg, 24 weeks",6.54%
same,"serum high-density lipoprotein, average change value compared with baseline","[1]; Group A, 30 mg, 24 weeks",0.0063
same,"serum high-density lipoprotein, percentage of average change compared with baseline","[1]; Group A, 30 mg, 24 weeks",1.45%
same,"triglyceride, percentage of average change compared with baseline","[1]; Group B, 90 mg (30 mg 3 times a day) oral, 24 weeks",−8.59%
same,"total bilirubin, percentage of average change compared with the baseline","[1]; Group B, 90 mg, 4 weeks",2.18%
same,"total bilirubin, percentage of average change compared with the baseline","[1]; Group B, 90 mg, 8 weeks",−0.45%
same,"total bilirubin, percentage of average change compared with the baseline","[1]; Group B, 90 mg, 16 weeks",−8.28%
same,"low-density lipoprotein, average change value compared with baseline","[1]; Group B, 90 mg, 24 weeks",0.1925
same,"low-density lipoprotein, percentage of average change compared with baseline","[1]; Group B, 90 mg, 24 weeks",6.92%
same,"total bilirubin levels, average decrease compared with the baseline","[1]; Group B, 90 mg, 24 weeks",6.10%
same,"total bilirubin, percentage of average change compared with the baseline","[1]; Group B, 90 mg, 24 weeks",−6.10%
same,"triglyceride levels, average decrease compared with baseline","[1]; Group B, 90 mg, 24 weeks",8.59%
same,"serum high-density lipoprotein, average change value compared with baseline","[1]; Group B, 90 mg, 24 weeks",0.0938
same,"serum high-density lipoprotein, percentage of average change compared with baseline","[1]; Group B, 90 mg, 24 weeks",7.77%
same,"triglyceride, percentage of average change compared with baseline","[1]; Group D, 60 mg (20 mg 3 times a day) oral, 24 weeks",−8.58%
same,"total bilirubin, percentage of average change compared with the baseline","[1]; Group D, 60 mg, 4 weeks",5.21%
same,"total bilirubin, percentage of average change compared with the baseline","[1]; Group D, 60 mg, 8 weeks",3.34%
same,"total bilirubin, percentage of average change compared with the baseline","[1]; Group D, 60 mg, 16 weeks",−1.82%
same,"low-density lipoprotein, average change value compared with baseline","[1]; Group D, 60 mg, 24 weeks",−0.0425
same,"low-density lipoprotein, percentage of average change compared with baseline","[1]; Group D, 60 mg, 24 weeks",0.05%
same,"total bilirubin levels, average decrease compared with the baseline","[1]; Group D, 60 mg, 24 weeks",8.55%
same,"total bilirubin, percentage of average change compared with the baseline","[1]; Group D, 60 mg, 24 weeks",−8.55%
same,"triglyceride levels, average decrease compared with baseline","[1]; Group D, 60 mg, 24 weeks",8.58%
same,"serum high-density lipoprotein, average change value compared with baseline","[1]; Group D, 60 mg, 24 weeks",0.1013
same,"serum high-density lipoprotein, percentage of average change compared with baseline","[1]; Group D, 60 mg, 24 weeks",9.15%
same,"high-density lipoprotein level, increase",[2],10-20%
same,"low density lipoprotein level, decrease",[2],15-25%
same,"total bilirubin level, decrease",[2],15-25%
same,"triglyceride level, decrease",[2],15-25%
same,"high-density lipoprotein level, increase",[3],10-20%
same,"low density lipoprotein level, decrease",[3],10-25%
same,"triglyceride level, decrease",[3],10-25%
same,"total bilirubin level, decrease",[4],10-25%

# — patent US11298334B2, “Use of isothiocyanate compounds” (JC (WUXI) COMPANY, INC., priority 2016, dated 2022)
